{
  "source": "patent US20050058745A1",
  "about": "“Use of Labiatae herb preparations for extending the flavor shelf life of malt beverages” (priority 2003, published 2005)",
  "key": {"[1]": {"test": "DCIP redox potential of the beer of Example 1, with added air", "assay_type": "physicochemical", "details": "20 ppm CA, Plus Air", "protocol": "A 10 mg/mL solution of carnosic acid was prepared by taking 250 mg of 100% pure crystal by HPLC and diluting to a total volume of 25 mL with ethanol.\nThe bottle dosing process from Example 1 was modified to allow for the inclusion of air. • A bottle of the beer was opened, struck sharply on the top to induce foaming (called “fobbing”), and crowned. The fobbing excludes air. The bottle was swirled and inverted. This sample was designated No CA, No Air. • A bottle was opened and dosed with 7.1 mg of CA (20 ppm) to a 12 oz bottle from 710 μL of the above solution. After addition we gave the headspace two puffs of air, from a 25 mL squeeze bulb. The bottle was crowned, swirled and inverted without fobbing. […]\nA standard solution of […] sodium salt (DCIP) at a concentration of 145 mg/dL was prepared by the method described in Methodensammlung der Mitteleuropäischen Brautechnischene Analösen Kommission, Vierte Ausgabe 2002, Editor Prof. […] The concentration of DCIP in mg/dL was measured by multiplying the mL of titer by 14.5. […]\nThe beers were stored in a 39° C. box for 14 days. […] The beers to be analyzed (the four treatments above) were degassed by centrifuging at 6,000 rpm for 15 min. […] Some of the degassed beer was poured to fill a 1 cm cuvette and placed in a spectrophotometer set to record the absorbance at 520 nm. […]\nThe “Redox Potential” was calculated by using the formula: [formula]"}, "[2]": {"test": "DCIP redox potential vs CA concentration, semi-light beer", "assay_type": "physicochemical", "details": "4 hr, 2-4° C.", "protocol": "The light beer was purchased at a local market and was 2 months old at time of use. Carnosic acid was added via a 1% ethanol solution made with pure CA. The levels of addition were 0, 5, 10, 15 and 20 ppm. The beers were opened, additions made and the beers were fobbed and crowned as described in Example 4. All analyses were done in triplicate using the DCIP method as described in Example 4. The samples were refrigerated for approx. 4 hr before being degassed and analyzed.\nThe same experiment was carried out with a semi-light beer with a production code indicating it was 5 months old."}, "[3]": {"test": "HPLC cis/trans ratio of isohumulone in beer stored at 40° C.", "assay_type": "physicochemical", "details": "for Cis/Trans Ratio of Isohumulone: 20 ppm of each constituent", "protocol": "One case of bottles was opened, 20 ppm carnosic acid and 20 ppm rosmarinic acid in the form of a propylene glycol solution was added and the bottles fobbed and crowned according to the procedure detailed in Example 1. An additional case was opened, fobbed and crowned in the same manner, and designated “Control”. All bottles were put in a 40° C. temperature controlled hot room. Samples of the above beer were taken at 0 time, 7, 21, 35, 44 and 58 days for HPLC hop acid analysis by a modification of the method of Burroughs and Williams [1999]. Beer samples (100 mL) were gently poured into tall-form beakers to avoid excessive foaming. Octanol (1-2 drops) was added to minimize foam, and the beer was sparged with helium for 10-15 minutes to degas them. The degased beer was transferred to a 2 mL autosampler vial and assayed according to the method in the reference.\nThe level of trans declines faster than the level of cis isomers. The trans isomers in this example are 28% of the total hop acids."}, "[4]": {"test": "Stability of RA in 9.5% tetrahydroisohumulone solution at pH 8", "assay_type": "physicochemical", "details": "pH 8, room temperature", "protocol": "A solution of rosmarinic acid in 9.5% tetrahydroisohumulone at pH 8 was prepared and allowed to stand at room temperature for an extended period of time to determine stability."}, "[5]": {"test": "Flavor stability of flavored malt beverage", "details": "10 ppm CA and 5 ppm CN; 10 ppm RA", "protocol": "To a flavored malt beverage 10 ppm CA and 5 ppm CN, is added, and the beverage aged. To the same beverage, 10 ppm RA is added. […] When RA is added to the CA and or CN, an improvement is observed."}},
  "note": "Entries after “also recorded” stand apart in the source; their conditions may differ.",
  "data": [
    {"smiles": "CC(C)c1cc2c(c(O)c1O)[C@@]1(C(=O)O)CCCC(C)(C)[C@@H]1CC2", "note": "[CA, carnosic acid]", "values": [
      {"measurement": "Redox Initial", "setting": "[1]", "result": 37.0},
      {"measurement": "Redox After 14 Days", "setting": "[1]; 39° C.", "result": 33.8},
      {"measurement": "Redox Potential", "setting": "[2]; 5 ppm CA", "result": 47.4},
      {"measurement": "Redox Potential", "setting": "[2]; 10 ppm CA", "result": 56.6},
      {"measurement": "Redox Potential", "setting": "[2]; 15 ppm CA", "result": 64.8},
      {"measurement": "Redox Potential", "setting": "[2]; 20 ppm CA", "result": 73.9},
      {"measurement": "time up to which the cis/trans level was helped to be maintained", "setting": "[3]; 20 ppm CA, 40° C.", "result": "about 35 days"},
      {"measurement": "Cis/Trans Ratio of Isohumulone", "setting": "[3]; Day 0, 40° C.", "result": 2.699},
      {"measurement": "Cis/Trans Ratio of Isohumulone", "setting": "[3]; Day 7, 40° C.", "result": 2.850},
      {"measurement": "Cis/Trans Ratio of Isohumulone", "setting": "[3]; Day 21, 40° C.", "result": 3.947},
      {"measurement": "Cis/Trans Ratio of Isohumulone", "setting": "[3]; Day 35, 40° C.", "result": 5.450},
      {"measurement": "Cis/Trans Ratio of Isohumulone", "setting": "[3]; Day 44, 40° C.", "result": 7.974},
      {"measurement": "Cis/Trans Ratio of Isohumulone", "setting": "[3]; Day 58, 40° C.", "result": 9.863}
    ]},
    {"smiles": "O=C(/C=C/c1ccc(O)c(O)c1)O[C@H](Cc1ccc(O)c(O)c1)C(=O)O", "note": "[RA, rosmarinic acid]", "values": [
      {"measurement": "% Rosmarinic Acid in Solution", "setting": "[4]; 0 days", "result": 12.07, "unit": "%"},
      {"measurement": "% Rosmarinic Acid in Solution", "setting": "[4]; 3 days", "result": 12.45, "unit": "%"},
      {"measurement": "% Rosmarinic Acid in Solution", "setting": "[4]; 5 days", "result": 12.40, "unit": "%"},
      {"measurement": "% Rosmarinic Acid in Solution", "setting": "[4]; 15 days", "result": 12.12, "unit": "%"},
      {"measurement": "% Rosmarinic Acid in Solution", "setting": "[4]; 38 days", "result": 11.36, "unit": "%"},
      {"measurement": "% Rosmarinic Acid in Solution", "setting": "[4]; 54 days", "result": 11.74, "unit": "%"},
      {"measurement": "% Rosmarinic Acid in Solution", "setting": "[4]; 86 days", "result": 10.88, "unit": "%"},
      {"measurement": "stability in hop acid solution", "setting": "[4]", "result": "stable in this formulation for at least three months; also recorded: very stable in the hop acid solution"},
      {"measurement": "flavor stability of aged flavored malt beverage", "setting": "[5]", "result": "only slightly better than the control"}
    ]}
  ]
}
